The source of these data is ChEMBL document CHEMBL1149355, “Structure-activity relationships for the linker in a series of pyridinyl-alkynes that are antagonists of the metabotropic glutamate receptor 5 (mGluR5)” (Bioorg Med Chem Lett, 2006).

Data set [1] has as its target Metabotropic glutamate receptor 5 (Homo sapiens, UniProt P41594). Briefly: Activity at human mGluR5d assessed as inhibition of glutamate-induced calcium influx by FLIPR assay. The data set is classed as functional.
Data set [2] deals with Metabotropic glutamate receptor 1 (Homo sapiens) (UniProt Q13255). Briefly: Activity at human mGluR1 assessed as inhibition of glutamate-induced calcium influx by FLIPR assay. The format is functional.
Metabotropic glutamate receptor 1 (Homo sapiens), sequence (Q13255 19-1194 limits assumed): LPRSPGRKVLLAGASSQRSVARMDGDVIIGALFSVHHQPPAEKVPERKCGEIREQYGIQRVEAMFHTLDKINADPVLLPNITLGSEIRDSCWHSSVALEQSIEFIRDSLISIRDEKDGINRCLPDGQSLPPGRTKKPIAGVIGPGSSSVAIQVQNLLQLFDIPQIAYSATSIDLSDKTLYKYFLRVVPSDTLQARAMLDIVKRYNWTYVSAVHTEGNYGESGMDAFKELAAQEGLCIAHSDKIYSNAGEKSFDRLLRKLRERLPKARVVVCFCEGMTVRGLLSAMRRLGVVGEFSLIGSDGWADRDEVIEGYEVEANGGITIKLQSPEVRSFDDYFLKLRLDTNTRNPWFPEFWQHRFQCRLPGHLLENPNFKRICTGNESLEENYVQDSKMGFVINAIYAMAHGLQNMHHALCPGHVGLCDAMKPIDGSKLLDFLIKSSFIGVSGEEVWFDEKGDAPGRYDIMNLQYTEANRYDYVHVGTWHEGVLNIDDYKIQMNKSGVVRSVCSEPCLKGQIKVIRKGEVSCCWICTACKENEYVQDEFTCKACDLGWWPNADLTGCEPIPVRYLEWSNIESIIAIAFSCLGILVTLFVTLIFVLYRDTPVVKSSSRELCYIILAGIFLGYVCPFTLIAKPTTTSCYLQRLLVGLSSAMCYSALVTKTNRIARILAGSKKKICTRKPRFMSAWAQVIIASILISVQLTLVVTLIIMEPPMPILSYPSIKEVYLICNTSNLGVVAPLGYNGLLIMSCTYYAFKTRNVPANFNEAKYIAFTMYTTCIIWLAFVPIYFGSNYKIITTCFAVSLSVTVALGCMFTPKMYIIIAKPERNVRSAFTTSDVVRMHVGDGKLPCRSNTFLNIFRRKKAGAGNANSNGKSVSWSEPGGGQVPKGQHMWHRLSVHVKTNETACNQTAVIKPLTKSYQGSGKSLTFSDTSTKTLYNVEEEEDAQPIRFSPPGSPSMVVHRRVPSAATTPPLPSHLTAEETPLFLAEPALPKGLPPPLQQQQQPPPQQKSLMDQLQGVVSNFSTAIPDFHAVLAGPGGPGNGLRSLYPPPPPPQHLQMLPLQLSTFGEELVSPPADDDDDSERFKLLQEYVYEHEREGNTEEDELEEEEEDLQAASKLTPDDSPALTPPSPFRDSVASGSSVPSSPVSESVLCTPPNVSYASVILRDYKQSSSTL
Data set [3] is described as follows: Volume of distribution in dog. The data set is classed as ADME, organism-based, Canis lupus familiaris. The following applies: in vivo, read-out: Vss.
The nature of data set [4]: Clearance in dog. The data set is classed as ADME, organism-based, Canis lupus familiaris. The note with it: in vivo.
The target of data set [5] is Metabotropic glutamate receptor 8 (Homo sapiens) (UniProt O00222). Briefly: Activity at human mGluR8 assessed as inhibition of glutamate-induced calcium influx by FLIPR assay. The format is functional.
Metabotropic glutamate receptor 8 (Homo sapiens), sequence (O00222 whole entry): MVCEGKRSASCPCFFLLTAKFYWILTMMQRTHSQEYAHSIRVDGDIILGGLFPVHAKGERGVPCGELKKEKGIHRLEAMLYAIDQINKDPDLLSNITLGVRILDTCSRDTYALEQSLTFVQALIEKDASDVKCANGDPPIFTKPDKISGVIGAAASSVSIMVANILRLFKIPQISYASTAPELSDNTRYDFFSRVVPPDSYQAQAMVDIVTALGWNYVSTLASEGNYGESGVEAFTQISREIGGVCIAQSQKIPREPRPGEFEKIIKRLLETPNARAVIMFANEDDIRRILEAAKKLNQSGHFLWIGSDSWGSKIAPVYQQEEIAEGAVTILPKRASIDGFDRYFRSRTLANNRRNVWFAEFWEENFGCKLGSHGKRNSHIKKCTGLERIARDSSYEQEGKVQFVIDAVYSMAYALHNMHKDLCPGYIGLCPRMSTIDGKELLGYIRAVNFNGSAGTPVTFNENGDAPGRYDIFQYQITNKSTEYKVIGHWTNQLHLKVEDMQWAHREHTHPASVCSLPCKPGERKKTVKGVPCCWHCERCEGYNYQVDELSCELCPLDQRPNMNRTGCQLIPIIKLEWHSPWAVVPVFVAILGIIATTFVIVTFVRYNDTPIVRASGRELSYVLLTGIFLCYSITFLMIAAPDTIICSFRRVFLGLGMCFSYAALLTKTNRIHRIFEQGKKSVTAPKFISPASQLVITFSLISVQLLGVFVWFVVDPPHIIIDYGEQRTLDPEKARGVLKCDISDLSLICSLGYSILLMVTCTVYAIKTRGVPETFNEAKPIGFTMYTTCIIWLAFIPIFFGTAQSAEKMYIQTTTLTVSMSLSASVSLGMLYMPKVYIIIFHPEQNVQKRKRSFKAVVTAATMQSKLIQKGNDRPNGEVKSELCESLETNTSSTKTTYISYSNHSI
For data set [6], the target named is Metabotropic glutamate receptor 3 (Homo sapiens) (UniProt Q14832). The data set can be described thus: Activity at human mGluR3 assessed as inhibition of glutamate-induced calcium influx by FLIPR assay. The format is functional.
Metabotropic glutamate receptor 3 (Homo sapiens), sequence (Q14832 23-879 limits assumed): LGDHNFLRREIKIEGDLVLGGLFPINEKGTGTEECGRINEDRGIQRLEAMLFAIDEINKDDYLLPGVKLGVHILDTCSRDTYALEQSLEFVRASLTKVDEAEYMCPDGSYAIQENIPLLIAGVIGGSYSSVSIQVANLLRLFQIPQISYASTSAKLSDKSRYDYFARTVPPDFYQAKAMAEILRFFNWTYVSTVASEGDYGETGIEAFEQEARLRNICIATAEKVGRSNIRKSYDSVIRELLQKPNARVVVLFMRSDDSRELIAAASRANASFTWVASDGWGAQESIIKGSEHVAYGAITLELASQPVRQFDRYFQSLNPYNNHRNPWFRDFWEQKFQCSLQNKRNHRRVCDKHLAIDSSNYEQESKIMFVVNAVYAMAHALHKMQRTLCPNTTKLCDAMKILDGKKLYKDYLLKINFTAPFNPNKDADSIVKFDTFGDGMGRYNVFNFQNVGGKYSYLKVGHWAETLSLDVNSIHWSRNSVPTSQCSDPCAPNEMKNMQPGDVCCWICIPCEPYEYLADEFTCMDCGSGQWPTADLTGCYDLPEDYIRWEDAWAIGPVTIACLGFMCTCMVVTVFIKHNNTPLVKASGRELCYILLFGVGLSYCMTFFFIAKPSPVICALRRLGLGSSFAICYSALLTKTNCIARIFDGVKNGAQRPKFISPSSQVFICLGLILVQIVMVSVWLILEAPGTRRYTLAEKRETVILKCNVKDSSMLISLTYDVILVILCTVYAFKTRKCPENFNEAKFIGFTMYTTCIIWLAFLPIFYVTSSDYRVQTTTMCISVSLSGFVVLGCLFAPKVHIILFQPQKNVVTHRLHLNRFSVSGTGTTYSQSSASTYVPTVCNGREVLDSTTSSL
A further data set has as its system Canis familiaris. Briefly: Inhibition of transient lower esophageal sphincter relaxation in dog at 3.9 umol/kg, iv. Set-up: scale not given: the % may be the effect or the level left. The data set is classed as functional, Canis lupus familiaris.
The nature of data set [7]: Intrinsic clearance in rat liver microsomes. The format is ADME, Microsome. (Microsomes from liver hold many membrane-bound enzymes, among them those of drug oxidation.)
Data set [8] in a line: Half life in dog. The format is ADME, organism-based, Canis lupus familiaris. The note with it: in vivo.
Data set [9] concerns the target Metabotropic glutamate receptor 4 (Homo sapiens) (UniProt Q14833). The data set can be described thus: Activity at human mGluR4 assessed as inhibition of glutamate-induced calcium influx by FLIPR assay. The format is functional.

The source made the active and inactive calls. No cut-off for these calls is given here. A value given as a limit tells only on which side of the number the result lay.

By IC50 is commonly meant the concentration needed to halve the response being measured. In general, clearance refers to the rate of elimination divided by the concentration. A word on the microsomal CLint: it is the capacity of the preparation to metabolise the compound, expressed as a volume cleared per time. For orientation: half-life means the time in which the quantity being followed falls by half.

Metabotropic glutamate receptor 5, sequence (P41594 whole entry): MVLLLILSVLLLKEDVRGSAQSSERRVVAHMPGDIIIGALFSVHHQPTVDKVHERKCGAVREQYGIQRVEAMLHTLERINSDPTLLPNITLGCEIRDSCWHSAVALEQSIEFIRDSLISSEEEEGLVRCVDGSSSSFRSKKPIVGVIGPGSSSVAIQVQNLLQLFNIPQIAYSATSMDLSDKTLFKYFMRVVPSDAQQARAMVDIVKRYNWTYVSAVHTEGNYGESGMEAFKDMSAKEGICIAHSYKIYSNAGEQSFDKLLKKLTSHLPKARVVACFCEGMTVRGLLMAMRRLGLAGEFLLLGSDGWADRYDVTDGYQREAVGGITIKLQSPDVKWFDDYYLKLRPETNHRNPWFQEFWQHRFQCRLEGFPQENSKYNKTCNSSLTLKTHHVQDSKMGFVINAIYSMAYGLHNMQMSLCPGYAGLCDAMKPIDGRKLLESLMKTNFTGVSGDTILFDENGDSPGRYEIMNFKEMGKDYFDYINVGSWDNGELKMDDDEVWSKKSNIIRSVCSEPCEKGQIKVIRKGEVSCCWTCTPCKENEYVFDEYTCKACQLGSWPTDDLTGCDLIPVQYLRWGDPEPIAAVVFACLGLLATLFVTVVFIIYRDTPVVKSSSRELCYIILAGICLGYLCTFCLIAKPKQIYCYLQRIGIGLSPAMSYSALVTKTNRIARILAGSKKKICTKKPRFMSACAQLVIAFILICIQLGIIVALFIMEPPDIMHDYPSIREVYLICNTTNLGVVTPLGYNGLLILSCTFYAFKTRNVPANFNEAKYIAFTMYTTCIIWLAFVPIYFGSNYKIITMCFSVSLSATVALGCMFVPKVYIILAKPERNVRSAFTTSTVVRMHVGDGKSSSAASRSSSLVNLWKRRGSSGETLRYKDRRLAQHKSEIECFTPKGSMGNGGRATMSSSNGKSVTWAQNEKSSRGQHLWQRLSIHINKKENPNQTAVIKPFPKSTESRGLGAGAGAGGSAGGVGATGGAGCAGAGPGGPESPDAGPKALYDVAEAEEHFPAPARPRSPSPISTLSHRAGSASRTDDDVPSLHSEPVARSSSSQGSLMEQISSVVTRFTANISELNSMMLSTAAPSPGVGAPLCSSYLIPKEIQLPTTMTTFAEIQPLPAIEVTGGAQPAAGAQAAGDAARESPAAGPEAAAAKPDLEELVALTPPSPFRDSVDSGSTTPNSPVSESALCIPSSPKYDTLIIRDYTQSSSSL
Metabotropic glutamate receptor 4 (Homo sapiens), sequence (Q14833 whole entry): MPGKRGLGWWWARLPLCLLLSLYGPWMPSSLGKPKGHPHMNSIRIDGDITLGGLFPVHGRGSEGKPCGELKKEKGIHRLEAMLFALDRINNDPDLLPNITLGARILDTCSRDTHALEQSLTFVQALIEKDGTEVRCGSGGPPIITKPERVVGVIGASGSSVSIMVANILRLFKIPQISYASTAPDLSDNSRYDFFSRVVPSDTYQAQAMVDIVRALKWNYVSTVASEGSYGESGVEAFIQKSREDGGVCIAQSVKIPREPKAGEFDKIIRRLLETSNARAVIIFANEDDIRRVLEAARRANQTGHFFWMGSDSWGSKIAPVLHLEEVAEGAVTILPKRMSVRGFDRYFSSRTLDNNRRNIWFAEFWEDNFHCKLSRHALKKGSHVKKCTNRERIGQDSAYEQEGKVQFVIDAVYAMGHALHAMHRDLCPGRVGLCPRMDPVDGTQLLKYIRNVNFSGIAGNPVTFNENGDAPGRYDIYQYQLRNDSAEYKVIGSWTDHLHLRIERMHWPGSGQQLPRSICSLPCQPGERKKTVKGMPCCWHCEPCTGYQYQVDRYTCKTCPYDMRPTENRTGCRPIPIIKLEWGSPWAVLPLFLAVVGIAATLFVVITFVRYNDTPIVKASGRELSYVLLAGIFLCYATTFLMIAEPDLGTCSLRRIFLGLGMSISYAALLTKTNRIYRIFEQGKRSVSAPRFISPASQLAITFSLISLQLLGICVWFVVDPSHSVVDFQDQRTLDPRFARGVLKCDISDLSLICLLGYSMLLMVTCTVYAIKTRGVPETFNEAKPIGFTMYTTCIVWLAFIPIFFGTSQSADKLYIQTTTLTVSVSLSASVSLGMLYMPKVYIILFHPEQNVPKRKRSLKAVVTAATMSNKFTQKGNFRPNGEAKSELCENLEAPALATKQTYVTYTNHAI

In the case of `Cc1cccc(C#CCSc2cccc(Cl)c2)n1`, in data set [1], the IC50 came to 43 nM. In [2], the outcome was inactive.
Turning to `Cc1cccc(C#CCC(C)c2ccccc2)n1` (configuration not stated), the IC50 in data set [1] was 59 nM.
Regarding `Cc1cccc(C#CC(=O)Nc2ccccc2)n1`, the IC50 in data set [1] was greater than 10000 nM.
On the same count and under the same terms, the same measure for `Cc1cccc(C#CCNc2ccccc2)n1`: 223 nM; for `Cc1cccc(C#CC[S+]([O-])c2ccccc2)n1` (configuration not stated): greater than 10000 nM.
`Cc1cccc(C#CCCc2cccc(Cl)c2)n1`: the Vd in [3] came to 3.2 L/kg. Moreover, in data set [4], the clearance was determined as 66 mL/min/kg. In addition, the outcome in data set [5], in data set [6], in [2] and in [9] was inactive. Besides, the IC50 in data set [1] was determined as 5 nM. The same compound yielded an Activity in the data set with Canis familiaris of 31%. Also, the microsomal CLint in data set [7] came to 197 µL/min/mg. In data set [8], this compound showed a half-life of 2 h.
Regarding `Cc1cccc(C#CCN(C)c2ccccc2)n1`, the IC50 in data set [1] came out at 6730 nM.
`Cc1cccc(C#Cc2cc3ccccc3s2)n1`: the half-inhibitory concentration (IC50) in [1] worked out at 306 nM.
In the case of `Cc1cccc(C#CCSc2ccccc2)n1`, the IC50 in data set [1] is 589 nM.
For `Cc1cccc(C#CCCCc2ccccc2)n1`, the concentration for half-maximal inhibition (IC50) in data set [1] was found to be 258 nM.
For `Cc1cccc(C#CCNC(=O)Nc2cccc(Cl)c2)n1`, in data set [1], the IC50 was greater than 10000 nM.
For `Cc1cccc(C#CCNc2cccc(Cl)c2)n1`, in data set [1], the IC50 came out at 174 nM. Besides, in [2], the outcome was inactive.
Regarding `Cc1cccc(C#CCNC(=O)c2cccc(Cl)c2)n1`, the IC50 in [1] came out at 2610 nM.
The same measure, in the same setting: next, `CCC(C#Cc1cccc(C)n1)Sc1cccc(Cl)c1` (configuration not stated): 862 nM.
Turning to `Cc1cccc(C#CC(Sc2cccc(Cl)c2)C(C)C)n1` (configuration not stated), the IC50 in data set [1] came to 461 nM.
As to `Cc1cccc(C#CC(C)Sc2cccc(Cl)c2)n1` (configuration not stated), the IC50 in data set [1] came out at 118 nM. In data set [2], the outcome was inactive.
Consider `Cc1cccc(C#CC(C)Nc2cccc(Cl)c2)n1` (configuration not stated), for which, in [1], the IC50 came out at 709 nM. For the same compound, the outcome in [2] was inactive.
Consider `Cc1cccc(C#CCCc2ccccc2)n1`, for which the outcome in data set [5], in data set [6] and in data set [9] was inactive. Also, in [1], the IC50 turned out to be 78 nM.
As for `Cc1cccc(C#CC(C)Oc2cccc(Cl)c2)n1` (configuration not stated), in data set [1], the IC50 was 281 nM. Moreover, the result in data set [2] was inactive.
On to `Cc1cccc(C#CCOc2cccc(Cl)c2)n1`, for which, in data set [2], the outcome was inactive.
